Results published in US8518957B2, “Methanocarba adenosine derivatives, pharmaceutical compositions, and method of reducing intraocular pressure” (The United States of America, as represented by the …, priority 2009, dated 2013).

Experiments:
human A3AR [1] = target: T1, human A3AR (Homo sapiens, UniProt P0DMS8); assay: Radioligand binding at human A3 AR ([125I]I-AB-MECA, membranes of CHO cells); details: for Ki: [125I]38, CHO cells, read-out: Affinity (Ki, nM), A3
T1 construct: expressed in transfected cells
T1 sequence (P0DMS8 1-318): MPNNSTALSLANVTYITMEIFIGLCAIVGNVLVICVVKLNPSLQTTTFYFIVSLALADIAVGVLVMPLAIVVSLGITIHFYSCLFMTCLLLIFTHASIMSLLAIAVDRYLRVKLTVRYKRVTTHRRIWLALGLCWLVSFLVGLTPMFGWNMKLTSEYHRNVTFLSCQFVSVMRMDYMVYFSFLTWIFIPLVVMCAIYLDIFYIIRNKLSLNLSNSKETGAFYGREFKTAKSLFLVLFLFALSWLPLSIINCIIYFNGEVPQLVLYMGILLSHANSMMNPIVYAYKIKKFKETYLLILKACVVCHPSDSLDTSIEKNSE
How it was run: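 Membranes came from CHO cells stably expressing hA3R, pretreated with adenosine deaminase (3 units/mL). Competition with agonist radioligand was run in 50 mM Tris-HCl pH 7.5, 10 mM MgCl2 for 60 min at 25 °C, followed by GF/B filtration and γ-counting. Ki values derived.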

human A3AR [2] = target: T1, human A3AR; assay: Cyclic AMP accumulation assay: inhibition of forskolin-stimulated cyclic AMP production in AR-transfected CHO cells; type: cell-based; details: for % Inhibition of cAMP formation at hA3 AR: at 10 μM, in comparison to the maximal effect of full agonist NECA at 10 μM
Method: Intracellular cyclic AMP levels were measured with a competitive protein binding method. […] CHO cells that expressed the recombinant human A3AR were harvested by trypsinization. After centrifugation and resuspended in medium, cells were planted in 24-well plates in 1.0 mL medium. After 24 h, the medium was removed and cells were washed three times with 1 mL DMEM, containing 50 mM HEPES, pH 7.4. […] After 45 min forskolin (10 μM) was added to the medium, and incubation was continued for an additional 15 min. […] The cell lysate was resuspended and stored at −20° C. For determination of cyclic AMP production, protein kinase A (PKA) was incubated with [^3H]cyclic AMP (2 nM) in K2HPO4/EDTA buffer (K2HPO4, 150 mM; EDTA, 10 mM), 20 μL of the cell lysate, and 30 μL 0.1 M HCl or 50 μL of cyclic AMP solution (0-16 pmol/200 μL for standard curve). Bound radioactivity was separated by rapid filtration through Whatman GF/C filters and washed once with cold buffer. Bound radioactivity was measured by liquid scintillation spectrometry.
Bound radioactivity was separated by rapid filtration through Whatman GF/C filters and washed the filters once with cold buffer. Bound radioactivity was measured with liquid scintillation spectrometry.

Compound	Ki (human A3AR [1])	% Inhibition of cAMP formation at hA3 AR (human A3AR [2])	% Inhibition of cAMP accumulation at the hA3AR (human A3AR [2]; concentration 10 μM, in comparison to full agonist NECA at 1 μM)	selectivity for the hA3AR in comparison to the hA1 and hA2A ARs (human A3AR [1]; radioligand binding inhibition curves, figure legends)
CNC(=O)[C@@]12C[C@@H]1[C@@H](n1cnc3c(NCc4cccc(Cl)c4)nc(C#CCCCCc4cn(CCNC(C)=O)nn4)nc31)[C@H](O)[C@@H]2O [Compound 15, (1S,2R,3S,4R,5S)-6-(3-Chlorobenzylamino)-(2-(6-(1-(4-acetamidoethyl)-1H-1,2,3-triazol-4-yl)hex-1-ynyl)-9H-purin-9-yl)-2′,3′-dihydroxybicyclo[3.1.0]hexane-1′-carboxylic acid N-methylamide]	22.3 ± 1.6 nM	93.6 ± 17.7%		
CNC(=O)[C@@]12C[C@@H]1[C@@H](n1cnc3c(NCc4cccc(Cl)c4)nc(C#CCCCCc4cn(CCCCN)nn4)nc31)[C@H](O)[C@@H]2O [Compound 16, (1S,2R,3S,4R,5S)-6-(3-Chlorobenzylamino)-(2-(6-(1-(4-aminobutyl)-1H-1,2,3-triazol-4-yl)hex-1-ynyl)-9H-purin-9-yl)-2′,3′-dihydroxybicyclo[3.1.0]hexane-1′-carboxylic acid N-methylamide]	47 ± 1.8 nM	64.4 ± 12.4%		
CNC(=O)[C@@]12C[C@@H]1[C@@H](n1cnc3c(NCc4cccc(Cl)c4)nc(C#CCCCCc4cn(-c5ccc(C(=O)CBr)cc5)nn4)nc31)[C@H](O)[C@@H]2O [Compound 14, (1S,2R,3S,4R,5S)-6-(3-Chlorobenzylamino)-4-(2-(6-(4-(2-bromoacetyl)phenyl)-1H-1,2,3-triazol-4-yphex-1-ynyl)-9H-purin-9-yl)-2′,3′-dihydroxybicyclo[3.1.0]hexane-1′-carboxylic acid N-methylamide]	9.6 ± 1.3 nM	109 ± 12%		
CNC(=O)[C@@]12C[C@@H]1[C@@H](n1cnc3c(NCc4cccc(Cl)c4)nc(C#CCCCCc4cn(CCCCCCC(=O)NCCCCCCNC(=O)CCCC[C@@H]5SC[C@@H]6NC(=O)N[C@@H]65)nn4)nc31)[C@H](O)[C@@H]2O [Compound 21]	235 ± 43 nM	41.8 ± 11.3%		
C#CCCCCC#Cc1nc(NCc2cccc(Cl)c2)c2ncn(C3C(O)C(O)C4(C(=O)NC)CC34)c2n1 (stereo not drawn) [Compound 9, (1′S, 2′R, 3′S, 4′S, 5′S)-4′-[6-(3-Chlorobenzylamino)-2-(1,7-octadiynyl)-9H-purin-9-yl]-2′,3′-dihydroxybicyclo[3.1.0]hexane-1′-carboxylic acid N-methylamide]	29.4 ± 9.8 nM	60.2 ± 17.0%	60.2 ± 17.0%	
CNC(=O)[C@@]12C[C@@H]1[C@@H](n1cnc3c(NCc4cccc(Cl)c4)nc(C#CCCCCc4cn(-c5ccc(N)cc5)nn4)nc31)[C@H](O)[C@@H]2O [Compound 12, (1S,2R,3S,4R,5S)-4′-(6-(3-Chlorobenzylamino)-2-(6-(1-(4-amino-phenyl)-1H-1,2,3-triazol-4-yl)hex-1-ynyl)-9H-purin-9-yl)-2′,3′-dihydroxybicyclo[3.1.0]hexane-1′-carboxylic acid N-methylamide]	87.1 ± 13.1 nM	44.3 ± 2.4%		
CNC(=O)[C@@]12C[C@@H]1[C@@H](n1cnc3c(NCc4cccc(Cl)c4)nc(C#CCCCCc4cn(CCCCCCNC(=O)CCCC[C@@H]5SC[C@@H]6NC(=O)N[C@@H]65)nn4)nc31)[C@H](O)[C@@H]2O [Compound 20, (1S,2R,3S,4R,5S)-6-(3-Chlorobenzylamino)-(2-(6-(1-(6-(5-(3aS,4S,6aR)-oxohexahydro-1H-thieno[3,4-d]imidazol-4-yl)pentanamido)hexyl-1H-1,2,3-triazol-4-yl)hex-1-ynyl)-9H-purin-9-yl)-2′,3′-dihydroxybicyclo[3.1.0]hexane-1′-carboxylic acid N-methylamide]	285 ± 54 nM	55.6 ± 12.5%		
CNC(=O)[C@@]12C[C@@H]1[C@@H](n1cnc3c(NCc4cccc(Cl)c4)nc(C#CCCCCc4cn(-c5ccc(N=C=S)cc5)nn4)nc31)[C@H](O)[C@@H]2O [Compound 26, (1S,2R,3S,4R,5S)-6-(3-Chlorobenzylamino)-(2-(6-(1-(4-isothiocyante-phenyl)-1H-1,2,3-triazol-4-yl)hex-1-ynyl)-9H-purin-9-yl)-2′,3′-dihydroxybicyclo[3.1.0]hexane-1′-carboxylic acid N-methylamide]	37.5 ± 16 nM	19.5 ± 14.5%		
CNC(=O)[C@@]12C[C@@H]1[C@@H](n1cnc3c(NCc4cccc(Cl)c4)nc(C#CCCCCc4cn(CCCCCCNC(=O)c5ccc(-c6c7ccc(=N)c(S(=O)(=O)O)c-7oc7c(S(=O)(=O)O)c(N)ccc67)c(C(=O)O)c5)nn4)nc31)[C@H](O)[C@@H]2O [Compound 23]	416 ± 45 nM	37.8 ± 14.6%		
CNC(=O)[C@@]12C[C@@H]1[C@@H](n1cnc3c(NCc4cccc(Cl)c4)nc(C#CCCCCc4cn(CCCCNC(C)=O)nn4)nc31)[C@H](O)[C@@H]2O [Compound 17, (1S,2R,3S,4R,5S)-6-(3-Chlorobenzylamino)-(2-(6-(1-(4-acetamidobutyl)-1H-1,2,3-triazol-4-yl)hex-1-ynyl)-9H-purin-9-yl)-2′,3′-dihydroxybicyclo[3.1.0]hexane-1′-carboxylic acid N-methylamide]	89.5 ± 12.6 nM	59.7 ± 19.2%		
CNC(=O)[C@@]12C[C@@H]1[C@@H](n1cnc3c(NCc4cccc(Cl)c4)nc(-c4nnn(-c5ccc(N=C=S)cc5)c4CCCCc4cn(-c5ccc(N=C=S)cc5)nn4)nc31)[C@H](O)[C@@H]2O [Compound 25, (1S,2R,3S,4R,5S)-6-(3-Chlorobenzylamino)-(2-(1,6-bis(4-isothiocyante-phenyl)-1H-bis(1,2,3-triazol-4-yl)hex-1-ynyl)-9H-purin-9-yl)-2′,3′-dihydroxybicyclo[3.1.0]hexane-1′-carboxylic acid N-methylamide]	8.8 ± 1.3 nM	83.6 ± 7.2%		
CNC(=O)[C@@]12C[C@@H]1[C@@H](n1cnc3c(NCc4cccc(Cl)c4)nc(C#CCCCCc4cn(-c5ccc(C(=O)O)cc5)nn4)nc31)[C@H](O)[C@@H]2O [Compound 13, (1S,2R,3S,4R,5S)-4′-(6-(3-Chlorobenzylamino)-2-(6-(1-(4-carboxyl-phenyl)-1H-1,2,3-triazol-4-yl)hex-1-ynyl)-9H-purin-9-yl)-2′,3′-dihydroxybicyclo[3.1.0]hexane-1′-carboxylic acid N-methylamide]	180 ± 23 nM	83.4 ± 13.1%		
CNC(=O)[C@@]12C[C@@H]1[C@@H](n1cnc3c(NCc4cccc(Cl)c4)nc(C#CCCCCc4cn(Cc5ccc(-n6sccc6=O)cc5)nn4)nc31)[C@H](O)[C@@H]2O [Compound 19, (1S,2R,3S,4R,5S)-6-(3-Chlorobenzylamino)-(2-(1-(4-3-oxoisothiazol-2(3H)-yl)benzyl-1H-1,2,3-triazol-4-yphex-1-ynyl)-9H-purin-9-yl)-2′,3′-dihydroxybicyclo[3.1.0]hexane-β-carboxylic acid N-methylamide]	102 ± 25 nM	75.9 ± 16.5%		
CNC(=O)[C@@]12C[C@@H]1[C@@H](n1cnc3c(NCc4cccc(Cl)c4)nc(C#CCCCCc4cn(C56CC7CC(CC(C7)C5)C6)nn4)nc31)[C@H](O)[C@@H]2O [Compound 18, (1S,2R,3S,4R,5S)-6-(3-Chlorobenzylamino)-(2-(6-(1-(adamantyl)-1H-1,2,3-triazol-4-yl)hex-1-ynyl)-9H-purin-9-yl)-2′,3′-dihydroxybicyclo[3.1.0]hexane-1′-carboxylic acid N-methylamide]	6.5 ± 0.5 nM	27.8 ± 17.4%		highly selective
CNC(=O)[C@@]12C[C@@H]1[C@@H](n1cnc3c(NCc4cccc(Cl)c4)nc(C#CCCCCc4cn(-c5ccc(F)c([N+](=O)[O-])c5)nn4)nc31)[C@H](O)[C@@H]2O [Compound 11]	10.6 ± 3.8 nM	116 ± 22%		
